Changes are numbered by the printed parent chain. “And” between values parts separate entries of the source, which are not always exact repeats. Identical values can stand only once.
Tests used:
mutant α-GAL [1] = target: T1, mutant α-GAL (Homo sapiens, UniProt P06280, T41I); test: T cell-based α-GAL enhancement assay, T cells from Fabry patients cultured with DGJ; parameters: key to Enhancement Group / Enhancement ratio: E: enhanceable;; I: enhanceable (intermediate);; NE: not enhanceable;; conditions: Fabry patient T cells, mutation T41I
T1 construct: endogenous in cells; host or cells: T cell cultures established from blood of Fabry patients
T1 sequence (P06280 32-429 T41I): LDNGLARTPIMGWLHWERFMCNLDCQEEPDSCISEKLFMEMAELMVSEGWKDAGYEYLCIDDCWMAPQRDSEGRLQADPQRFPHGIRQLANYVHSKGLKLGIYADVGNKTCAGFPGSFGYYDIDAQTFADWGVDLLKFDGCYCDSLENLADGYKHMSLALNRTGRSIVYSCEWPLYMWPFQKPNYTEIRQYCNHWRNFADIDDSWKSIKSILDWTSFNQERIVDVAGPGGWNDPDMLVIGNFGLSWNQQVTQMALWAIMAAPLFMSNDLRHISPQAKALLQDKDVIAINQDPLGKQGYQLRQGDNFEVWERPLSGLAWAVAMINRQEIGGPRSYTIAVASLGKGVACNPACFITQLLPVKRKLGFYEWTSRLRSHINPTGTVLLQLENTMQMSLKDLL
Method in brief: (§1)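 T cells expanded from patient or normal blood white cells in RPMI 1640 with serum, about 25 ng/ml IL-2 and PHA at 37° C, 5% CO2. Cultures held between 5×10^5 and 1.5×10^6 cells/ml.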

mutant α-GAL [2] = target: T2, mutant α-GAL (Homo sapiens, UniProt P06280, R301Q); test: as above; parameters: key to Enhancement Group / Enhancement ratio: E: enhanceable;; I: enhanceable (intermediate);; NE: not enhanceable;
T2 construct: was put into a fresh tube and used as the source of α-GAL; endogenous in cells; host or cells: T cell cultures established from blood of Fabry patients
T2 sequence (P06280 32-429 R301Q): T1 sequence (P06280 32-429 T41I) with I10T, R270Q
Method in brief: as §1

OC[C@H]1NC[C@H](O)[C@@H](O)[C@H]1O [DGJ, 1-deoxygalactonojirimycin]
Enhancement Group (mutant α-GAL [1]): E | Activity (% Normal) (+DGJ) (mutant α-GAL [1]; 20 μM DGJ): 147 % Normal and 175 % Normal | Enhancement ratio (mutant α-GAL [1]; +DGJ vs −DGJ): 3.0 and 2.9 | Enhancement Group (mutant α-GAL [2]; Fabry patient T cells, mutation R301Q): E | Enhancement ratio (mutant α-GAL [2]; Fabry patient T cells, mutation R301Q, +DGJ vs −DGJ): 12.3 and 9.1 and 12.1 | increase of activity in the presence of DGJ (mutant α-GAL [2]; R301Q mutation, T cells): 12 fold

Reference: patent US11241422B2, “Methods for treatment of Fabry disease” (Amicus Therapeutics, Inc., priority 2006, dated 2022)
